Test results as given in patent publication US20090269394A1, “METHODS AND COMPOSITIONS FOR TREATING ONCHOMYCOSIS” (priority 2008, published 2009).
Values after ≈ are worked out from the molar mass of the structure shown. Read-outs that look alike come from different tables or passages of the source.

How the values were obtained:
[1] = test system: Trichophyton mentagrophytes; experiment: MIC/MFC microtiter broth dilution; format: cell-based
Epidermophyton floccosum [2] = experiment: MIC/MFC microtiter broth dilution; format: cell-based; conditions: n = 6 isolates; NB-002 as μg CPC/ml
Trichophyton tonsurans = experiment: MIC/MFC microtiter broth dilution; format: cell-based
Microsporum canis = experiment: MIC/MFC microtiter broth dilution; format: cell-based
[3] = test system: Candida albicans isolates; experiment: MIC/MFC microtiter broth dilution; format: cell-based; conditions: NB-002 as μg CPC/ml; for MIC90: Candida albicans, read-out: MIC90
T. violaceum = experiment: MIC against species that cause tinea capitis; format: cell-based; conditions: T. violaceum n = 10
M. audouinii = experiment: MIC against species that cause tinea capitis; format: cell-based; conditions: M. audouinii n = 10
Acremonium spp. = experiment: MIC against rare onychomycosis pathogens (CLSI M 38-A); format: cell-based; conditions: 5 isolates; NB-002 as μg CPC/ml
From the text: (§1) Methods: All fungi were from patients, many of which had onychomycosis or another tinea infection.

Alternaria spp. = experiment: as above; format: cell-based; conditions: 3 isolates; NB-002 as μg CPC/ml
From the text: as §1

Aspergillus spp. = experiment: as above; format: cell-based; conditions: 5 isolates; NB-002 as μg CPC/ml
From the text: as §1

Chaetomium spp. = experiment: as above; format: cell-based; conditions: 3 isolates; NB-002 as μg CPC/ml
From the text: as §1

Curvularia spp. = experiment: as above; format: cell-based; conditions: 3 isolates; NB-002 as μg CPC/ml
From the text: as §1

Epicoccum nigrum = experiment: as above; format: cell-based; conditions: 3 isolates; NB-002 as μg CPC/ml
From the text: as §1

Paecilomyces spp. = experiment: as above; format: cell-based; conditions: 4 isolates; NB-002 as μg CPC/ml
From the text: as §1

Phoma sp. = experiment: as above; format: cell-based; conditions: 3 isolates; NB-002 as μg CPC/ml
From the text: as §1

Scedosporium spp. = experiment: as above; format: cell-based; conditions: 5 isolates; NB-002 as μg CPC/ml
From the text: as §1

Trichophyton soundanense = experiment: as above; format: cell-based; conditions: 3 isolates; NB-002 as μg CPC/ml
From the text: as §1

Trichophyton verrucosum = experiment: as above; format: cell-based; conditions: 3 isolates; NB-002 as μg CPC/ml
From the text: as §1

Epidermophyton floccosum [4] = experiment: microbe, parasite or virus in culture; format: cell-based; conditions: read-out: Final MIC
Experimental: (§2) Phenotypically resistant isolates were tested for MICs and compared to parental MICs.

[5] = test system: Trichophyton mentagrophytes; experiment: microbe, parasite or virus in culture; format: cell-based
Experimental: as §2

Trichophyton rubrum [6] = experiment: microbe, parasite or virus in culture; format: cell-based
Experimental: as §2

T. rubrum = experiment: Time-kill experiments on mycelia and microconidia; format: cell-based, Trichophyton rubrum; conditions: 16×MIC, up to 24 hours, nongrowth conditions (FIG. 10)
Experimental: Time-kill experiments. […] Part of the conidial suspension was pelleted and resuspended in RPMI 1640 medium and grown for 16-18 hours overnight at room temperature to allow germination of microconidia. After germination, the hyphae were collected by centrifugation and resuspended in distilled water. […] Colony-forming units were counted after four days of incubation at 35° C.

[7] = test system: Trichophyton mentagrophytes; format: cell-based; conditions: 10^7 conidia plated; NBD012-d; drug plate 0.0625 μg/ml
Trichophyton rubrum [8] = format: cell-based; conditions: 10^7 conidia plated; NBD031-c; drug plate 0.125 μg/ml
[9] = n = 14 isolates, NB-002 as μg CPC/ml
[10] = T. tonsurans (n = 6), NB-002 as μg CPC/ml
[11] = T. tonsurans n = 10 (tinea capitis species)
[12] = M. canis (n = 5), NB-002 as μg CPC/ml
[13] = M. canis n = 10 (tinea capitis species)
[14] = Azole-Resistant isolates (n = 24)
[15] = Azole-Susceptible isolates (n = 10)

Question: For `CN(C/C=C/C#CC(C)(C)C)Cc1cccc2ccccc12` [Terbinafine], which MIC90 ([1]; Trichophyton mentagrophytes) is on record?
Answer: 0.125 µg/mL (≈ 0.429 µM)

Question: What about the MIC50 ([1]; Trichophyton mentagrophytes, read-out: MIC50) of the same compound?
Answer: 0.0313 µg/mL (≈ 0.107 µM)

Question: What about the MFC50 [1, 9] of the same compound?
Answer: 0.25 µg/mL (≈ 0.858 µM)

Question: And the MFC90 [1, 9]?
Answer: >1 µg/mL

Question: What about the “MIC range” value [1, 9] of the same compound?
Answer: 0.0313 to 0.25 µg/mL

Question: What about the “MFC Range” value (Epidermophyton floccosum [2]) of the same compound?
Answer: 0.0313 to 1 µg/mL

Question: What about the “MIC range” value (Epidermophyton floccosum [2]) of the same compound?
Answer: 0.0625 to 0.25 µg/mL

Question: What about the MFC Range (Trichophyton tonsurans; [10]) of the same compound?
Answer: 0.06 to 0.12 µg/mL

Question: And the MIC range (Trichophyton tonsurans; [10])?
Answer: 0.008 to 0.015 µg/mL

Question: What about the MIC50 (Trichophyton tonsurans; [11]) of the same compound?
Answer: 0.016 µg/mL (≈ 0.0549 µM)

Question: What about the MIC90 (Trichophyton tonsurans; [11]) of the same compound?
Answer: 0.016 µg/mL (≈ 0.0549 µM)

Question: What about the “MIC range” value (Trichophyton tonsurans; T. tonsurans n = 10 (tinea capitis species), in µg/mL) of the same compound?
Answer: 0.008-0.016

Question: And the MFC Range (Microsporum canis; [12])?
Answer: 0.06 to 0.12 µg/mL

Question: What about the MIC range (Microsporum canis; [12]) of the same compound?
Answer: 0.004 to 0.03 µg/mL

Question: And the MIC50 (Microsporum canis; [13])?
Answer: 0.06 µg/mL (≈ 0.206 µM)

Question: What about the MIC90 (Microsporum canis; [13]) of the same compound?
Answer: 0.06 µg/mL (≈ 0.206 µM)

Question: What about the “MIC range” value (Microsporum canis; M. canis n = 10 (tinea capitis species), in µg/mL) of the same compound?
Answer: 0.06

Question: And the MFC90 [3, 14]?
Answer: >1 µg/mL

Question: What about the MFC90 [3, 15] of the same compound?
Answer: >1 µg/mL

Question: And the MIC90 [3, 14]?
Answer: > 1 µg/mL

Question: What about the MIC90 [3, 15] of the same compound?
Answer: > 1 µg/mL

Question: What about the MIC50 (T. violaceum) of the same compound?
Answer: 0.03 µg/mL (≈ 0.103 µM)

Question: And the MIC90 (T. violaceum)?
Answer: 0.03 µg/mL (≈ 0.103 µM)

Question: What about the “MIC range” value (T. violaceum; in µg/mL) of the same compound?
Answer: 0.008-0.03

Question: What about the MIC50 (M. audouinii) of the same compound?
Answer: 0.06 µg/mL (≈ 0.206 µM)

Question: What about the MIC90 (M. audouinii) of the same compound?
Answer: 0.06 µg/mL (≈ 0.206 µM)

Question: And the “MIC range” value (M. audouinii; in µg/mL)?
Answer: 0.03-0.06

Question: And the MIC range (Acremonium spp.)?
Answer: 0.125 to 1 µg/mL

Question: What about the MIC range (Alternaria spp.) of the same compound?
Answer: 1 to 2 µg/mL

Question: What about the MIC range (Aspergillus spp.) of the same compound?
Answer: 0.03 to 0.25 µg/mL

Question: What about the MIC range (Chaetomium spp.) of the same compound?
Answer: 1 to 2 µg/mL

Question: What about the MIC range (Curvularia spp.) of the same compound?
Answer: 0.03 to 1 µg/mL

Question: What about the MIC range (Epicoccum nigrum) of the same compound?
Answer: 0.03 to 0.06 µg/mL

Question: And the MIC range (Paecilomyces spp.)?
Answer: 0.25 to 0.5 µg/mL

Question: And the MIC range (Phoma sp.)?
Answer: 0.03 µg/mL (≈ 0.103 µM)

Question: And the MIC range (Scedosporium spp.)?
Answer: >2 µg/mL

Question: What about the MIC range (Trichophyton soundanense) of the same compound?
Answer: ≦0.004 ug/ml

Question: What about the MIC range (Trichophyton verrucosum) of the same compound?
Answer: ≦0.004-0.015 ug/ml

Question: What about the MIC (Epidermophyton floccosum [4]) of the same compound?
Answer: 0.016 µg/mL (≈ 0.0549 µM)

Question: What about the MIC ([5]; read-out: Final MIC, isolate NBD012-a, selected on NB-002 drug plate 8 μg/ml) of the same compound?
Answer: 0.031 µg/mL (≈ 0.106 µM)

Question: And the MIC ([5]; read-out: Final MIC, isolate NBD012-b, selected on NB-002 drug plate 16 μg/ml)?
Answer: 0.031 µg/mL (≈ 0.106 µM)

Question: What about the MIC ([5]; read-out: Final MIC, isolate NBD012-c, selected on NB-002 drug plate 32 μg/ml) of the same compound?
Answer: 0.016 µg/mL (≈ 0.0549 µM)

Question: What about the MIC ([5]; read-out: Final MIC, isolate NBD012-d, selected on terbinafine drug plate 0.0625 μg/ml) of the same compound?
Answer: 0.031 µg/mL (≈ 0.106 µM)

Question: And the MIC ([5]; read-out: Final MIC, isolate NBD013-a, selected on itraconazole drug plate […])?
Answer: 0.016 µg/mL (≈ 0.0549 µM)

Question: And the MIC ([5]; read-out: Final MIC, isolate NBD014-a, selected on NB-002 drug plate 32 μg/ml)?
Answer: 0.016 µg/mL (≈ 0.0549 µM)

Question: And the MIC (Trichophyton rubrum [6]; read-out: Final MIC, isolate NBD031-a, selected on NB-002 drug plate 16 μg/ml)?
Answer: 0.016 µg/mL (≈ 0.0549 µM)

Question: And the MIC (Trichophyton rubrum [6]; read-out: Final MIC, isolate NBD031-b, selected on itraconazole drug plate 0.125 μg/ml)?
Answer: 0.016 µg/mL (≈ 0.0549 µM)

Question: And the MIC (Trichophyton rubrum [6]; read-out: Final MIC, isolate NBD031-c, selected on terbinafine drug plate 0.125 μg/ml)?
Answer: 0.016 µg/mL (≈ 0.0549 µM)

Question: What about the “reduction of colony counts / activity on mycelia and microconidia” value (T. rubrum) of the same compound?
Answer: no activity

Question: And the “# CFU recovered” value [7]?
Answer: 2

Question: And the “# CFU recovered” value (Trichophyton rubrum [8])?
Answer: 1
